Measured values: PubChem BioAssay (NCI)
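Test compounds were applied to cells in 96-well plates for 48 hours at 5 doses. At the TGI there is no net growth.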

How the values were obtained:
Assay in all cases: DTP human tumour cell line panel, 48 h
[1] = tested on: 786-0 renal
[2] = tested on: A498 renal
[3] = tested on: A549 NSCLC
[4] = tested on: ACHN renal
[5] = tested on: BT-549 breast
[6] = tested on: CAKI-1 renal
[7] = tested on: CCRF-CEM leukemia
[8] = tested on: COLO 205 colon
[9] = tested on: DU-145 prostate
[10] = tested on: EKVX NSCLC
[11] = tested on: HCC-2998 colon
[12] = tested on: HCT-116 colon
[13] = tested on: HCT-15 colon
[14] = tested on: HL-60(TB) leukemia
[15] = tested on: HOP-62 NSCLC
[16] = tested on: HOP-92 NSCLC
[17] = tested on: HS 578T breast
[18] = tested on: HT29 colon
[19] = tested on: IGROV1 ovarian
[20] = tested on: K-562 leukemia
[21] = tested on: KM12 colon
[22] = tested on: LOX IMVI melanoma
[23] = tested on: M14 melanoma
[24] = tested on: MALME-3M melanoma
[25] = tested on: MCF7 breast
[26] = tested on: MDA-MB-231 breast
[27] = tested on: MDA-MB-435
[28] = tested on: MDA-N
[29] = tested on: MOLT-4 leukemia
[30] = tested on: NCI-H226 lung
[31] = tested on: NCI-H23 lung
[32] = tested on: NCI-H460 lung
[33] = tested on: NCI-H522 lung
[34] = tested on: NCI/ADR-RES ovarian
[35] = tested on: OVCAR-3 ovarian
[36] = tested on: OVCAR-4 ovarian
[37] = tested on: OVCAR-5 ovarian
[38] = tested on: OVCAR-8 ovarian
[39] = tested on: PC-3 prostate
[40] = tested on: RPMI-8226 leukemia
[41] = tested on: RXF 393 renal
[42] = tested on: SF-268 CNS
[43] = tested on: SF-295 CNS
[44] = tested on: SF-539 CNS
[45] = tested on: SK-MEL-2 melanoma
[46] = tested on: SK-MEL-28 melanoma
[47] = tested on: SK-MEL-5 melanoma
[48] = tested on: SK-OV-3 ovarian
[49] = tested on: SN12C renal
[50] = tested on: SNB-19 CNS
[51] = tested on: SNB-75 CNS
[52] = tested on: SR leukemia
[53] = tested on: SW-620 colon
[54] = tested on: T-47D breast
[55] = tested on: TK-10 renal
[56] = tested on: U251 CNS
[57] = tested on: UACC-257 melanoma
[58] = tested on: UACC-62 melanoma
[59] = tested on: UO-31 renal

SMILES: COC(OC)C1(c2ccccc2)Oc2ccccc2C1=O (configuration not stated)
- TGI [1]: > 100 µM
- TGI [2]: > 100 µM
- TGI [3]: > 100 µM
- TGI [4]: > 100 µM
- TGI [5]: > 100 µM
- TGI [6]: > 100 µM
- TGI [7]: > 100 µM
- TGI [8]: > 100 µM
- TGI [9]: > 100 µM
- TGI [10]: > 100 µM
- TGI [11]: > 100 µM
- TGI [12]: > 100 µM
- TGI [13]: > 100 µM
- TGI [14]: > 100 µM
- TGI [15]: > 100 µM
- TGI [16]: > 100 µM
- TGI [17]: > 100 µM
- TGI [18]: > 100 µM
- TGI [19]: > 100 µM
- TGI [20]: > 100 µM
- TGI [21]: > 100 µM
- TGI [22]: > 100 µM
- TGI [23]: > 100 µM
- TGI [24]: > 100 µM
- TGI [25]: > 100 µM
- TGI [26]: > 100 µM
- TGI [27]: > 100 µM
- TGI [28]: > 100 µM
- TGI [29]: > 100 µM
- TGI [30]: > 100 µM
- TGI [31]: > 100 µM
- TGI [32]: > 100 µM
- TGI [33]: > 100 µM
- TGI [34]: > 100 µM
- TGI [35]: > 100 µM
- TGI [36]: > 100 µM
- TGI [37]: > 100 µM
- TGI [38]: > 100 µM
- TGI [39]: > 100 µM
- TGI [40]: > 100 µM
- TGI [41]: > 100 µM
- TGI [42]: > 100 µM
- TGI [43]: > 100 µM
- TGI [44]: > 100 µM
- TGI [45]: > 100 µM
- TGI [46]: > 100 µM
- TGI [47]: > 100 µM
- TGI [48]: > 100 µM
- TGI [49]: > 100 µM
- TGI [50]: > 100 µM
- TGI [51]: > 100 µM
- TGI [52]: > 100 µM
- TGI [53]: > 100 µM
- TGI [54]: > 100 µM
- TGI [55]: > 100 µM
- TGI [56]: > 100 µM
- TGI [57]: > 100 µM
- TGI [58]: > 100 µM

SMILES: CC(C)(C)C1CCC2c3c([nH]c4ccccc34)C3C(=O)N(c4cccc(Cl)c4)C(=O)C3C2C1 (configuration not stated)
- TGI [1]: 22 µM
- TGI [2]: 53.7 µM
- TGI [3]: > 55.8 µM
- TGI [4]: 44.2 µM
- TGI [5]: 41.1 µM
- TGI [6]: 53.2 µM
- TGI [7]: > 91.8 µM
- TGI [8]: 35.8 µM
- TGI [9]: 33.2 µM
- TGI [10]: 43.7 µM
- TGI [11]: 12.4 µM
- TGI [12]: 19.3 µM
- TGI [13]: 42.6 µM
- TGI [14]: 13 µM
- TGI [15]: 18 µM
- TGI [16]: 18.9 µM
- TGI [17]: > 68.1 µM
- TGI [18]: 20 µM
- TGI [19]: 45.7 µM
- TGI [20]: > 49.6 µM
- TGI [21]: 14.5 µM
- TGI [22]: 20.8 µM
- TGI [23]: 28.3 µM
- TGI [24]: 32.4 µM
- TGI [25]: 4.22 µM
- TGI [26]: 29.6 µM
- TGI [27]: 48.9 µM
- TGI [28]: 24.7 µM
- TGI [29]: 13 µM
- TGI [30]: 39.9 µM
- TGI [31]: 25.3 µM
- TGI [32]: 17.7 µM
- TGI [33]: 34.5 µM
- TGI [34]: 34 µM
- TGI [35]: 33.3 µM
- TGI [36]: 58.1 µM
- TGI [37]: 30.3 µM
- TGI [38]: > 55.6 µM
- TGI [39]: 36.9 µM
- TGI [40]: > 72.2 µM
- TGI [41]: 22.6 µM
- TGI [42]: 32.4 µM
- TGI [43]: 44.7 µM
- TGI [44]: 35.5 µM
- TGI [45]: 35.1 µM
- TGI [46]: 32 µM
- TGI [47]: 26.3 µM
- TGI [48]: 63.2 µM
- TGI [49]: 15.6 µM
- TGI [50]: > 100 µM
- TGI [51]: 50.1 µM
- TGI [52]: > 36 µM
- TGI [53]: 23.2 µM
- TGI [54]: 48.7 µM
- TGI [55]: 39 µM
- TGI [56]: 38.4 µM
- TGI [57]: 29.6 µM
- TGI [58]: 33.4 µM
- TGI [59]: 15.1 µM
